In article PMC8126888 (RSC Medicinal Chemistry, 2020):
Where two headings read alike, the source gives them in different places.

Key:
MRC-5SV2 cells = assay: Cytotoxicity assay on MRC-5SV2 cells (resazurin)
[1] = tested on: L. donovani MHOM/ET/67/L82 intracellular amastigotes; details: read-out: L. donovani MHOM/ET/67/L82 intracellular amastigotes IC50
[2] = tested on: Leishmania infantum MHOM/MA(BE)/67/ITMAP263 intracellular amastigotes; details: for IC50: read-out: L. infantum MHOM/MA(BE)/67/ITMAP263 intracellular amastigotes IC50
[3] = tested on: primary peritoneal mouse macrophages (PMM); details: for IC50: read-out: PMM IC50; for SI (vs PMM): PMM IC50 / L. infantum IC50
[4] = tested on: Trypanosoma cruzi, Tulahuen CL2, beta-galactosidase strain; assay: microbe, parasite or virus in culture; details: MRC5, read-out: T. cruzi Tulahuen C4 (LacZ) IC50
in vitro [5] = details: human
in vitro [6] = details: Swiss, mouse
[7] = tested on: Leishmania infantum MHOM/MA(BE)/67/ITMAP263 intracellular amastigotes; assay: microbe, parasite or virus in culture; details: Macrophage, in Mus musculus
in vitro [8] = details: human, microsomes, pH 7.4, HLM CLint, human liver microsomes
in vitro [9] = details: mouse, microsomes, pH 7.4, MLM CLint, mouse liver microsomes
[10] = from L. infantum intracellular amastigote IC50
[11] = read-out: L. Inf. pIC50, from L. infantum intracellular amastigote IC50 (converted)
[12] = read-out: L. infantum MHOM/MA(BE)/67/ITMAP263 intracellular amastigotes IC50

SMILES	CC50 (MRC-5SV2 cells)	IC50 [1]	IC50 [2]	IC50 [3]	L. Inf. pIC50 [2]	further results
COc1ccc(S(=O)(=O)N(C)C)cc1NC(=O)Cn1c(=O)cnc2ccccc21 [Compound Z19025005]	> 32 µM	> 32 µM	> 32 µM	> 32 µM		
CCN(CC)S(=O)(=O)c1cc(NC(=O)c2[nH]c(C)c(C(=O)OC)c2C)ccc1C [Compound Z26467494]	10.9 µM	12 µM	16.1 µM	> 32 µM	4.79	
CCOc1ccc(NC(=O)c2[nH]c(C)c(C(=O)OC)c2C)cc1S(=O)(=O)N1CCCC1 [Compound Z29178369]	> 32 µM	> 32 µM	> 32 µM	> 32 µM		
COc1ccc(S(=O)(=O)N(C)C)cc1NC(=O)CN1C(=O)COc2ccccc21 [Compound Z29560624]	> 32 µM	> 32 µM	> 32 µM	> 32 µM		
CCOC(=O)c1c(C)[nH]c(C(=O)Nc2cccc(S(=O)(=O)N3CCOCC3)c2)c1C [Compound Z30001211]	18.1 µM	> 32 µM	> 32 µM	> 32 µM		
COC(=O)c1c(C)[nH]c(C(=O)Nc2cccc(S(=O)(=O)N3CCCC3)c2)c1C [Compound Z30224758]	> 32 µM	> 32 µM	> 32 µM	> 32 µM		
CCOC(=O)c1c(C)[nH]c(C(=O)Nc2ccc(Cl)c(S(=O)(=O)N3CCCCC3)c2)c1C [Compound Z30461235]	2.17 µM	3.39 µM	2.99 µM	16 µM	5.52	
CCOC(=O)c1c(C)[nH]c(C(=O)NNC(=O)c2cccc(S(=O)(=O)N(CC)CC)c2)c1C [Compound Z30581529]	> 32 µM	> 32 µM	> 32 µM	> 32 µM		
CC1Cc2ccccc2N1CC(=O)Nc1ccc(Cl)c(S(=O)(=O)N(C)C)c1 (centres unmarked) [Compound Z30956600]	> 32 µM	> 32 µM	> 32 µM	> 32 µM		
CN(C)S(=O)(=O)c1cccc(NC(=O)CNc2cccc3c2CCCC3)c1 [Compound Z30985744]	> 32 µM	> 32 µM	> 32 µM	> 32 µM		
CN(Cc1ccccc1NCC(=O)Nc1cccc(S(=O)(=O)N(C)C)c1)C1CCCCC1 [Compound Z31013342]	> 32 µM	> 32 µM	21.5 µM	> 32 µM	4.67	
O=S(=O)(NCc1cccs1)c1ccc2c(c1)CCCC2 [Compound Z45423905]	27.1 µM	> 32 µM	> 32 µM	> 32 µM		
COc1ccccc1S(=O)(=O)N(Cc1ccccc1)Cc1ccccc1 [Compound Z45508946]	> 32 µM	1.59 µM	0.34 µM	> 32 µM	6.47	
COc1ccc(OC)c(S(=O)(=O)N(Cc2ccccc2)Cc2ccccc2)c1 [Compound Z45508995]	6.41 µM	1.19 µM	1.01 µM	> 32 µM	6	
CC1CCc2ccccc2N1CC(=O)Nc1ccc(Cl)c(S(=O)(=O)N(C)C)c1 (centres unmarked) [Compound Z46500410]	> 32 µM	> 32 µM	> 32 µM	> 32 µM		
Cc1ccc(NC(=O)c2[nH]c(C)c(C(=O)OC(C)C)c2C)cc1S(=O)(=O)N1CCCCC1 [Compound Z51733284]	3.11 µM	16.2 µM	10.2 µM	16 µM	4.99	
CCCCNS(=O)(=O)c1cccc(NC(=O)c2cnc(C)cn2)c1 [Compound Z88583029]	> 32 µM	> 32 µM	> 32 µM	> 32 µM		
CCCCNS(=O)(=O)c1cccc(NC(=O)c2cc3ccccc3[nH]2)c1 [Compound Z88584859]	> 32 µM	25.4 µM	16.2 µM	> 32 µM	4.79	
CCCCNS(=O)(=O)c1cccc(NC(=O)c2cc(C)c(C)s2)c1 [Compound Z88584860]	> 32 µM	> 32 µM	> 32 µM	> 32 µM		
CCCCNS(=O)(=O)c1cccc(NC(=O)c2ccc(C)c(OC)c2)c1 [Compound Z109591588]	> 32 µM	> 32 µM	> 32 µM	> 32 µM		
COC(=O)c1c(C)[nH]c(C(=O)Nc2cccc(S(C)(=O)=O)c2)c1C [Compound Z109929482]	> 32 µM	> 32 µM	> 32 µM	> 32 µM		

SMILES	CC50 (MRC-5SV2 cells)	IC50 [1]	IC50 [2]	IC50 [3]	L. Inf. pIC50 [2]	further results
CC1CCc2ccccc2N1CC(=O)N1CCCc2cc(S(=O)(=O)N(C)C)ccc21 (centres unmarked) [Compound Z195652240]	> 32 µM	> 32 µM	> 32 µM	> 32 µM		
COc1ccc(S(=O)(=O)N(Cc2cccc(F)c2)Cc2cccc(F)c2)cc1OC [Compound Z220633200]	> 32 µM	25.4 µM	10.1 µM	> 32 µM	4.99	
COc1ccc(S(=O)(=O)N(Cc2ccccc2C#N)Cc2ccccc2C#N)cc1OC [Compound Z220633250]	> 32 µM	> 32 µM	4.76 µM	> 32 µM	5.32	
COc1ccc(S(=O)(=O)N(C)C)cc1NC(=O)C1CCCc2ccccc21 (centres unmarked) [Compound Z300980532]	> 32 µM	> 32 µM	> 32 µM	> 32 µM		
CN(C)S(=O)(=O)c1cccc(NC(=O)CN2CCCc3cc(F)cc(F)c32)c1 [Compound Z369155588]	> 32 µM	> 32 µM	> 32 µM	> 32 µM		
CNC(=O)NC(=O)COc1ccc(S(N)(=O)=O)cc1 [Compound Z381095182]	> 32 µM	> 32 µM	> 32 µM	> 32 µM		
COC(=O)c1cccc(C(=O)Nc2cccc(S(=O)(=O)N3CCCC3)c2)n1 [Compound Z441654950]	> 32 µM	> 32 µM	> 32 µM	> 32 µM		
Fc1cccc(Cl)c1CNc1ccccc1-n1cccn1 [Compound Z739504072]	> 32 µM	> 32 µM	> 32 µM	> 32 µM		
CCc1c(C(=O)Nc2cc(S(=O)(=O)NC)ccc2C)[nH]c(C)c1C(C)=O [Compound Z792473370]	> 32 µM	> 32 µM	21.5 µM	> 32 µM	4.67	
CCCc1c(C(=O)Nc2cccc(S(=O)(=O)NCc3ccco3)c2)[nH]c(C)c1C(C)=O [Compound Z966334826]	12.8 µM	> 32 µM	14.5 µM	> 32 µM	4.84	
CCCCOc1cc(C)c(Cl)cc1S(=O)(=O)NCc1cccnc1 [Compound Z969575790]		25.4 µM				L. Inf. pIC50 [2, 10]: 4.78; SI (vs PMM) [3]: 2
CCCCCOc1cc(C)c(Cl)cc1S(=O)(=O)NCc1ccco1 [Compound Z1172171148]		4.76 µM				L. Inf. pIC50 [2, 10]: 5.97; SI (vs PMM) [3]: 30
CCCOc1cc(C)c(C)cc1S(=O)(=O)NC1CCCC1 [Compound Z1197866122]		> 32 µM				SI (vs PMM) [3]: 1
CCCCOc1cc(C)c(Cl)cc1S(=O)(=O)NCc1cccs1 [Compound Z1198037505]		5.38 µM				L. Inf. pIC50 [2, 10]: 6.1; SI (vs PMM) [3]: 41
Cc1ccc(NC(=O)CN(CC(C)C)c2cccc(O)c2)cc1S(=O)(=O)N(C)C [Compound Z1317978681]	28.4 µM	19 µM	16.1 µM	> 32 µM	4.79	
Cc1ccc(NC(=O)CN2CCCCc3ccccc32)cc1S(=O)(=O)N1CCOCC1 [Compound Z1318043362]	> 32 µM	25.4 µM	16.6 µM	16 µM	4.78	
Cc1cc(C)c(C#N)c(SCSc2nc(C)cc(C)c2C#N)n1 [DNDI0003297456]						IC50 [4]: > 64 µM; CC50 at 3 days (in vitro [5]): > 64 µM; IC50 (in vitro [6]): > 64 µM; SI (vs PMM) [3]: 1; IC50 [7, 11]: > 64 µM; IC50 [7, 12]: > 64 µM
CCC(Cc1ccccc1)S(=O)(=O)c1nc(C)cc(C)c1C#N (centres unmarked) [DNDI0003297459]						IC50 [4]: 45.2 µM; CC50 at 3 days (in vitro [5]): > 64 µM; IC50 (in vitro [6]): > 64 µM; SI (vs PMM) [3]: 3; IC50 [7, 11]: 20.4 µM; IC50 [7, 12]: 20.2 µM
CCCCC(=O)Nc1cccnc1S(=O)(=O)CCOc1ccccc1 [DNDI0003363560]						IC50 [4]: 14.7 µM; CC50 at 3 days (in vitro [5]): 29.7 µM; IC50 (in vitro [6]): 32 µM; SI (vs PMM) [3]: 1; IC50 [7, 11]: 32.4 µM; IC50 [7, 12]: 32.5 µM
COc1ccc(Cl)cc1S(=O)(=O)N(Cc1ccccc1)Cc1ccccc1 [DNDI0003366072]						IC50 [4]: 8.16 µM; microsomal CLint at 0.5 μM (in vitro [8]): 407 µL/min/mg; CC50 at 3 days (in vitro [5]): > 64 µM; IC50 (in vitro [6]): > 64 µM; microsomal CLint at 0.5 μM (in vitro [9]): 1350 µL/min/mg; IC50 [7, 11]: 1.38 µM; IC50 [7, 12]: 1.37 µM
CC/C(=C(\c1ccccc1)c1ccc(OCCN(C)C)cc1)c1ccccc1 [Tamoxifen, reference compound]						CC50 at 5 days (in vitro [6]): 5 to 10 µM
